Measurements from patent publication US20050256204A1, “Topical phenyl-epinephrine Rosacea treatment” (priority 2004, published 2005).

Assays:
[1] = test system: non-mucous membrane skin tissues; conditions: topical application; phenyl-epinephrine strength of at least one percent; water-based gel
Description: The topical applications of phenyl-epinephrine used in steps 104, 106, and 108, can include the use of a skin lotion comprising phenyl-epinephrine in solution with a strength sufficient for transdermal absorption by non-mucous membrane skin tissues. Such phenyl-epinephrine is the only active ingredient, and it is preferably compounded with a water-based gel. Such gel provides for holding the phenyl-epinephrine in contact with a user's skin for a minimal residence time sufficient to induce vasoconstriction.

[2] = test system: skin reddening symptoms of Rosacea and other facial skin disorders; conditions: topical applications in a cosmetic lotion, applied as needed
Description: For example, using step 106 alone. Further embodiments of the present invention therefore comprise phenyl-epinephrine cosmetic skin lotion. The skin lotion is applied as needed by the user, e.g., just before going out in public.

For `CNC[C@H](O)c1cccc(O)c1` [phenyl-epinephrine], the vasoconstriction [1] was “produced the desired vasoconstriction” and the “relief of skin reddening symptoms” value [2] was “temporary relief of skin reddening symptoms”.
